Patent US6841567B1, “Cyclic substituted fused pyrrolocarbazoles and isoindolones” (Cephalon, Inc., priority 1999, dated 2005)

How the values were obtained:
[1] = target: T1, baculovirus-expressed human trkA cytoplasmic domain (Homo sapiens, UniProt P04629); assay: Inhibition of trkA tyrosine kinase activity (ELISA-based assay); assay type: biochemical; conditions: for trkA kinase activity % Inh. @ 300 nM (values in parentheses) / inhibition at 0.3 µM: 300 nM compound; for IC50: 40 μM ATP; for inhibition at 0.3 µM: read-out: trkA kinase activity % Inh. @ 300 nM (values in parentheses)
T1 construct: baculovirus-expressed human trkA cytoplasmic domain; made in house; host or cells: baculovirus expression system
Description: Selected cyclic substituted fused pyrrolocarbazole and isoindolone compounds were tested for their ability to inhibit the kinase activity of baculovirus-expressed human trkA cytoplasmic domain using an ELISA-based assay as previously described (Angeles et al., Anal. Biochem. 236: 49-55, 1996). Briefly, the 96-well microtiter plate was coated with substrate solution (recombinant human phospholipase C-γ1/glutathione S-transferase fusion protein (Rotin et al., EMBO J., 11: 559-567, 1992). Inhibition studies were performed in 100 μl assay mixtures containing 50 mM Hepes, pH 7.4, 40 μM ATP, 10 mM MnCl2, 0.1% BSA, 2% DMSO, and various concentrations of inhibitor. The reaction was initiated by addition of trkA kinase and allowed to proceed for 15 minutes at 37° C. An antibody to phosphotyrosine (UBI) was then added, followed by a secondary enzyme-conjugated antibody, alkaline phosphatase-labelled goat antII-mouse IgG (Bio-Rad). The activity of the bound enzyme was measured via an amplified detection system (Gibco-BRL). Inhibition data were analyzed using the sigimoidal dose-response (variable slope) equation in GraphPad Prism.

[2] = target: T2, VEGF receptor (human flk-1, KDR, VEGFR2) kinase domain (Homo sapiens, UniProt P35968); assay: Inhibition of vascular endothelial growth factor receptor kinase activity (ELISA); assay type: biochemical; conditions: for VEGF receptor kinase activity % Inh. @ 300 nM (values in parentheses) / inhibition at 0.3 µM: 300 nM compound; for IC50: 40 μM ATP; for inhibition at 0.3 µM: read-out: VEGF receptor kinase activity % Inh. @ 300 nM (values in parentheses)
T2 construct: VEGF receptor (human flk-1, KDR, VEGFR2) kinase domain; made in house; host or cells: baculovirus expression system
Description: Cyclic substituted fused pyrrolocarbazole and isoindolone compounds were examined for their inhibitory effects on the kinase activity of baculovirus-expressed VEGF receptor (human flk-1, KDR, VEGFR2) kinase domain using the procedure described for the trkA kinase ELISA assay described above. The kinase reaction mixture, consisting of 50 mM Hepes, pH 7.4, 40 μM ATP, 10 mM MnCl2, 0.1% BSA, 2% DMSO, and various concentrations of inhibitor, was transferred to PLC-γ/GST-coated plates. VEGFR kinase was added and the reaction was allowed to proceed for 15 min. at 37 C. Detection of phosphorylated product was accomplished by addition of antII-phosphotyrosine antibody (UBI). A secondary enzymeconjugated antibody was delivered to capture the antibody-phosphorylated PLC-γ/GST complex. The activity of the bound enzyme was measured via an amplified detection system (Gibco-BRL). Inhibition data were analyzed using the sigmoidal dose-response (variable slope) equation in GraphPad Prism.

[3] = target: T3, trkA (NIH3T3 cells transfected with trkA) (Homo sapiens, UniProt P04629); assay: Inhibition of NGF-stimulated trk phosphorylation in a whole cell preparation; assay type: cell-based; design: key to Cell Score @ 100 nM (percent decrease in trk protein band): 0=no decrease; 1=1-25%; 2=26-49%; 3=50-75%; 4=76-100%; conditions: NGF 10 ng/ml; for Cell Score @ 100 nM (percent decrease in trk protein band): 100 nM compound; for Cell Score @ 1 uM (percent decrease in trk protein band): 1 uM compound
T3 construct: expressed in transfected cells; host or cells: NIH3T3
Description: NIH3T3 cells transfected with trkA were grown in 100 mm dishes. Subconfluent cells were serum-starved by replacing media with serum-free 0.05% BSA-DMEM containing compound (100 nM and 1 μM) or DMSO (added to controls) for one hour at 37° C. NGF (Harlan/Bioproducts for Science) was then added to the cells at a concentration of 10 ng/ml for 5 minutes. Cells were lysed in buffer containing detergent and protease inhibitors. Clarified cell lysates were normalized to protein using BCA method and immunoprecipitated with antII-trk antibody. Polyclonal antII-trk antibody was prepared against a peptide corresponding to the 14 amino acids at the carboxy terminus of trk (Martin-Zanca et al., Mol. Cell. Biol. 9: 24-33, 1989). The immune complexes were collected on Protein A Sepharose beads (Sigma Chem. Co., St. Lois, Mo.), separated by SDS polyacrylamide gel electrophoresis (SDS-PAGE), and transferred to a polyvinylidene difluoride (PVDF) membrane. The membrane was immunoblotted with antII-phosphotyrosine antibody (UBI), followed by incubation with horseradish peroxidase coupled goat antII-mouse IgG (Bio-Rad Laboratories, Hercules, Calif.). Phosphorylated proteins were visualized using ECL (Arnersham Life Science, Inc., Arlington Heights, Ill.). The area of the trk protein band was measured and compared to NGF-stimulated control. The inhibition scoring system used, based on percent decrease in trk protein band, was as follows: 0=no decrease; 1=1-25%; 2=26-49%; 3=50-75%; 4=76-100%.

[4] = target: protein kinase C (UBI; mixed isozymes of a, b, g); assay: Inhibition of protein kinase C activity (Millipore Multiscreen TCA in-plate assay); assay type: biochemical; conditions: for Protein kinase C activity, values in parentheses: concentration not given
Description: Protein kinase C activity was assessed using the Millipore Multiscreen TCA “in-plate” assay as described in Pitt, A. M. and Lee, C. (J. Biomol. Screening, 1: 47-51, 1996). Assays were performed in 96-well Multiscreen-DP plates (Millipore). Each […] assay mixture contained 20 mM Hepes, pH 7.4, 10 mM MgCl2, 2.5 mM EGTA, 2.5 mM CaCl2, […] phosphatidyl serine, […] diolein, […] histone H-1 (Fluka), […] [γ-^32P]ATP, 1.5 ng protein kinase C (UBI; mixed isozymes of a, b, g), 0.1% BSA, 2% DMSO, and test cyclic substituted fused pyrrolocarbazole compound. The reaction was allowed to proceed for 10 min at 37° C., then quenched by adding ice cold 50% trichloroacetic acid. The plates were allowed to equilibrate for 30 min at 4° C., then washed with ice cold 25% TCA. Scintillation cocktail was added to the plates, and the radioactivity was determined using Wallac MicroBeta 1450 PLUS scintillation counter. The IC50 values were calculated by fitting the data to the sigmoidal dose-response (variable slope) equation in GraphPad Prism.

T1 sequence (P04629 440-796 limits assumed): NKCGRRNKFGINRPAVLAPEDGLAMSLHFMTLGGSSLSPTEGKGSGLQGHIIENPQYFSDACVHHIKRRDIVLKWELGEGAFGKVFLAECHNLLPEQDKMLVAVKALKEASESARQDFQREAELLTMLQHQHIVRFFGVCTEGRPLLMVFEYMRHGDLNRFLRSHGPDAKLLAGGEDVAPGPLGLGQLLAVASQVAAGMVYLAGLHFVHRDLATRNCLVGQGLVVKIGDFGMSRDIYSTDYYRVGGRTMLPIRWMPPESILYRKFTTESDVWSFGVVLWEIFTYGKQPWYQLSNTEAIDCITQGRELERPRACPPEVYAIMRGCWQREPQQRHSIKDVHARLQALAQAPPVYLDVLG
T3 sequence (P04629 33-796, species assumed): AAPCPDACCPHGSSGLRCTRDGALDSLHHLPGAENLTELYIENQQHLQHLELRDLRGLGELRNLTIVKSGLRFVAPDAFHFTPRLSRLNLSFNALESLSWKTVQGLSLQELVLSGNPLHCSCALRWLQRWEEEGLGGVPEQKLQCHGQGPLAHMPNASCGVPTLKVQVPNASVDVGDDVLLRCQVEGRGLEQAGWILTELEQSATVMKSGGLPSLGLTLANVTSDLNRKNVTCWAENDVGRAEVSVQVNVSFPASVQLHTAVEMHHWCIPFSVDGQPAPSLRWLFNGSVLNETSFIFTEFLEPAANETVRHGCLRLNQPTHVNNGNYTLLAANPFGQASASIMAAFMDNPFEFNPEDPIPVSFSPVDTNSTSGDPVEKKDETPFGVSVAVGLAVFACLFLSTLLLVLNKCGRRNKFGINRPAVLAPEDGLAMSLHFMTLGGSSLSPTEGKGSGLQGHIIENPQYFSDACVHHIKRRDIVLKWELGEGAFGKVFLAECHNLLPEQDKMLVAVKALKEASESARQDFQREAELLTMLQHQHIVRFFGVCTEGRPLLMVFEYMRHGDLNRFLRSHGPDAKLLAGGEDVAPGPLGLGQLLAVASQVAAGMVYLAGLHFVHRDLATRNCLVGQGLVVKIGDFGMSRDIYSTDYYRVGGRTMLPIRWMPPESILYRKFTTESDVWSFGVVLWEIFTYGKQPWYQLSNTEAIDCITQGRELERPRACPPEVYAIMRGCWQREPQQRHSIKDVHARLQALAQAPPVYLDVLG
T2 sequence (P35968 834-1162 limits assumed): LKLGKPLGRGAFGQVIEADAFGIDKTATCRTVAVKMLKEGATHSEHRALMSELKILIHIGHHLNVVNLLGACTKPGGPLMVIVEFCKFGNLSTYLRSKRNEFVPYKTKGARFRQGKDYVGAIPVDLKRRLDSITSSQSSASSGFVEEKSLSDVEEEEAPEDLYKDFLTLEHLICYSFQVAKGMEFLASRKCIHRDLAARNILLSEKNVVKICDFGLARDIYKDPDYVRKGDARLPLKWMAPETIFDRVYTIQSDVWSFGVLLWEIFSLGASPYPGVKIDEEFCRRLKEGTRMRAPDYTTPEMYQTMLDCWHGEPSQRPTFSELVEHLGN

## CCC1(C2(CO)CCCO2)c2ccccc2-c2c3c(c4c([nH]c5ccccc54)c21)CNC3=O (mixture of isomers) [II-34]
[1]
  trkA kinase activity % Inh. @ 300 nM (values in parentheses): (38) %
[2]
  VEGF receptor kinase activity % Inh. @ 300 nM (values in parentheses): (52) %

## CCOC1COCC(C)(C2c3ccccc3-c3c4c(c5c([nH]c6ccccc65)c32)CNC4=O)O1 (mixture of isomers) [II-51bc]
[1]; 0.3 µM
  trkA kinase activity % Inh. @ 300 nM (values in parentheses): (56) %
[2]; 0.3 µM
  VEGF receptor kinase activity % Inh. @ 300 nM (values in parentheses): (62) %

## CC1(C2c3ccccc3-c3c4c(c5c([nH]c6ccccc65)c32)CNC4=O)CCCO1 (racemic) [II-04]
[3]
  Cell Score @ 100 nM (percent decrease in trk protein band): 1 (1=1-25%)
  Cell Score @ 1 uM (percent decrease in trk protein band): 2 (2=26-49%)
[1]
  IC50: 8 nM
[4]
  IC50: > 10000 nM

## O=C1NCc2c1c1c(c3c2c2cc(Br)ccc2n3CC2CO2)Cc2ccccc2-1 (racemic) [II-57]
[2]
  IC50: 380 nM

## COCCOCc1ccc2c(c1)c1c3c(c4c(c1n2CC1CO1)Cc1ccccc1-4)C(=O)NC3 (racemic) [II-61]
[4]
  IC50: 1360 nM

## O=C1NCc2c1c1c(c3c2c2ccccc2n3CC2CCCCO2)Cc2ccccc2-1 (racemic) [II-62]
[1]
  trkA kinase activity % Inh. @ 300 nM (values in parentheses): (27) %
[4]
  Protein kinase C activity, values in parentheses: (27)

## O=C1NCc2c1c1c(c3c2c2ccccc2n3CC2CCCOC2)Cc2ccccc2-1 (racemic) [II-63]
[1]
  trkA kinase activity % Inh. @ 300 nM (values in parentheses): (28) %
[4]
  Protein kinase C activity, values in parentheses: (28)

## CC1(C2c3ccccc3-c3c4c(c5c([nH]c6ccccc65)c32)CNC4=O)CCCO1 (single isomer, unassigned) [II-30a]
[1]
  IC50: 214 nM
[2]
  inhibition at 0.3 µM: 59%

## O=C1NCc2c1c1c(c3[nH]c4ccccc4c23)C(C2(CO)CCCO2)c2ccccc2-1 (single isomer, unassigned) [II-35]
[3]
  Cell Score @ 100 nM (percent decrease in trk protein band): 0
  Cell Score @ 1 uM (percent decrease in trk protein band): 3 (3=50-75%)
[1]
  IC50: 78 nM
[4]
  IC50: > 10000 nM
[2]
  inhibition at 0.3 µM: 55%

## CCOC1COCC(C)(C2c3ccccc3-c3c4c(c5c([nH]c6ccccc65)c32)CNC4=O)O1 (single isomer, unassigned) [II-51d]
[1]; 0.3 µM
  trkA kinase activity % Inh. @ 300 nM (values in parentheses): (58) %
[2]; 0.3 µM
  VEGF receptor kinase activity % Inh. @ 300 nM (values in parentheses): (48) %

## CCOC1CCC(CO)(C2c3cc(OC)ccc3-c3c4c(c5c([nH]c6ccccc65)c32)CNC4=O)O1 (single isomer, unassigned) [II-54]
[3]
  Cell Score @ 100 nM (percent decrease in trk protein band): 2 (2=26-49%)
  Cell Score @ 1 uM (percent decrease in trk protein band): 4 (4=76-100%)
[1]
  IC50: 59 nM
[2]
  IC50: 122 nM

## O=C1NCc2c1c1c(c3[nH]c4ccccc4c23)C(C2CCOC2=O)c2ccccc2-1 (single isomer, unassigned) [II-60]
[2]
  VEGF receptor kinase activity % Inh. @ 300 nM (values in parentheses): (45) %

## O=C1NCc2c1c1c(c3c2c2ccccc2n3C[C@@H]2CO2)Cc2ccccc2-1 [II-01b]
[2]
  IC50: 266 nM

## O=C1NCc2c1c1c(c3c2c2ccccc2n3C[C@H]2CO2)Cc2ccccc2-1 [II-01c]
[1]
  IC50: 163 nM
[2]
  IC50: 168 nM

## O=C1NCc2c1c1c(c3[nH]c4ccccc4c23)C(C2(O)CCN(Cc3ccccc3)CC2)c2ccccc2-1 (centres unmarked) [II-02]
[1]
  IC50: 64 nM
[4]
  IC50: 7500 nM

## O=C1NCc2c1c1c(c3[nH]c4ccccc4c23)C(C2(O)CCOCC2)c2ccccc2-1 (centres unmarked) [II-03]
[1]
  IC50: 72 nM
[4]
  IC50: 4070 nM

## O=C1CCC(C2c3ccccc3-c3c4c(c5c([nH]c6ccccc65)c32)CNC4=O)O1 (centres unmarked) [II-06]
[3]
  Cell Score @ 100 nM (percent decrease in trk protein band): 1 (1=1-25%)
  Cell Score @ 1 uM (percent decrease in trk protein band): 2 (2=26-49%)
[1]
  IC50: 90 nM
[2]
  inhibition at 0.3 µM: 56%

## O=C1NCc2c1c1c(c3[nH]c4ccccc4c23)C(C2CCCO2)c2ccccc2-1 (centres unmarked) [II-07]
[3]
  Cell Score @ 100 nM (percent decrease in trk protein band): 1 (1=1-25%)
  Cell Score @ 1 uM (percent decrease in trk protein band): 2 (2=26-49%)
[1]
  IC50: 19 nM
[4]
  IC50: 7120 nM

## CN1CCC(O)(C2c3ccccc3-c3c4c(c5c([nH]c6ccccc65)c32)CNC4=O)CC1 (centres unmarked) [II-10]
[1]
  IC50: 182 nM
[4]
  IC50: 1570 nM

## O=C1NCc2c1c1c(c3[nH]c4ccccc4c23)C(C2(O)CCSCC2)c2ccccc2-1 (centres unmarked) [II-14]
[1]
  inhibition at 0.3 µM: 32%
[4]
  IC50: > 10000 nM

## O=C1NCc2c1c1c(c3[nH]c4ccccc4c23)C(C2(O)CCc3ccccc3C2)c2ccccc2-1 (centres unmarked) [II-15]
[1]
  inhibition at 0.3 µM: 26%
[4]
  IC50: > 10000 nM

## O=C1NCc2c1c1c(c3[nH]c4ccccc4c23)C(C2(CCCCl)CCCO2)c2ccccc2-1 (centres unmarked) [II-19]
[1]
  IC50: 162 nM
[2]
  inhibition at 0.3 µM: 46%

## O=C1NCc2c1c1c(c3[nH]c4ccccc4c23)C(C2(CO)CCCO2)c2ccccc2-1 (centres unmarked) [II-21]
[3]
  Cell Score @ 100 nM (percent decrease in trk protein band): 2 (2=26-49%)
  Cell Score @ 1 uM (percent decrease in trk protein band): 4 (4=76-100%)
[1]
  IC50: 15 nM
[4]
  IC50: > 10000 nM

## O=C1NCc2c1c1c(c3[nH]c4ccccc4c23)C(C2(C(O)CO)CCCO2)c2ccccc2-1 (centres unmarked) [II-29]
[3]
  Cell Score @ 100 nM (percent decrease in trk protein band): 0
  Cell Score @ 1 uM (percent decrease in trk protein band): 4 (4=76-100%)
[1]
  IC50: 16 nM
[4]
  IC50: 2080 nM

## O=C1CCC(CO)(C2c3ccccc3-c3c4c(c5c([nH]c6ccccc65)c32)CNC4=O)O1 (centres unmarked) [II-33]
[1]
  IC50: 153 nM
[4]
  IC50: 1040 nM

## CCOC1CCC(C2c3ccccc3-c3c4c(c5c([nH]c6ccccc65)c32)CNC4=O)O1 (centres unmarked) [II-40b]
[1]
  IC50: 59 nM
[2]
  IC50: 1420 nM

## O=C1NCc2c1c1c(c3[nH]c4ccccc4c23)C(C2(O)CCCO2)c2ccccc2-1 (centres unmarked) [II-42]
[1]
  IC50: 149 nM
[4]
  IC50: 6230 nM
[2]
  IC50: 1390 nM

## O=C1NCc2c1c1c(c3[nH]c4ccccc4c23)C(C2(CCl)CCCO2)c2ccccc2-1 (centres unmarked) [II-44]
[1]
  IC50: 80 nM
[2]
  IC50: > 1000 nM

## CC1(C)COC(=O)C1(O)C1c2ccccc2-c2c3c(c4c([nH]c5ccccc54)c21)CNC3=O (centres unmarked) [II-47]
[3]
  Cell Score @ 100 nM (percent decrease in trk protein band): 1 (1=1-25%)
  Cell Score @ 1 uM (percent decrease in trk protein band): 3 (3=50-75%)
[1]
  IC50: 44 nM
[4]
  IC50: 1530 nM

## CCOC1COCC(C)(C2c3ccccc3-c3c4c(c5c([nH]c6ccccc65)c32)CNC4=O)O1 (centres unmarked) [II-51a]
[1]
  inhibition at 0.3 µM: 56%
[2]
  IC50: 170 nM
